Series [1] in a line: Stability in presence of air. In kind it is physicochemical. Particulars: free base. The procedure:
However, the compounds can usually be stabilised by converting them to a salt form.
1 g (2.8mmol) 1,3-Dihydro-5-(3,6-dihydro-6-methyl-2-oxo-2H -1,3,4-thiadiazin-5-yl)-3-phenylimino-2H-indol-2-one (E6) and 1.87 g (28mmol) powdered zinc in 20 ml glacial acetic acid were refluxed for 10 minutes. The excess of zinc was removed by filtration and washed with acetic acid. 100 ml water were added to the filtrate and the precipitate was filtered, washed with water until neutral, and dried under vacuum. […] The crystals of the free base were suspended in a 1/5 mixture of methanol/ethyl ether (30 ml) and about 5 ml of a saturated solution of HCl gas in ethyl ether were added. After 1 hour of stirring, the white precipitate was filtered off, washed with ether and dried.

Another series addresses T1, canine cardiac PDE, CGI (Canis lupus familiaris, UniProt A0A8I3NYE0).
T1 construct: CANINE CARDIAC PDE; from tissue; host or cells: dog heart
T1 sequence (A0A8I3NYE0 1-1135): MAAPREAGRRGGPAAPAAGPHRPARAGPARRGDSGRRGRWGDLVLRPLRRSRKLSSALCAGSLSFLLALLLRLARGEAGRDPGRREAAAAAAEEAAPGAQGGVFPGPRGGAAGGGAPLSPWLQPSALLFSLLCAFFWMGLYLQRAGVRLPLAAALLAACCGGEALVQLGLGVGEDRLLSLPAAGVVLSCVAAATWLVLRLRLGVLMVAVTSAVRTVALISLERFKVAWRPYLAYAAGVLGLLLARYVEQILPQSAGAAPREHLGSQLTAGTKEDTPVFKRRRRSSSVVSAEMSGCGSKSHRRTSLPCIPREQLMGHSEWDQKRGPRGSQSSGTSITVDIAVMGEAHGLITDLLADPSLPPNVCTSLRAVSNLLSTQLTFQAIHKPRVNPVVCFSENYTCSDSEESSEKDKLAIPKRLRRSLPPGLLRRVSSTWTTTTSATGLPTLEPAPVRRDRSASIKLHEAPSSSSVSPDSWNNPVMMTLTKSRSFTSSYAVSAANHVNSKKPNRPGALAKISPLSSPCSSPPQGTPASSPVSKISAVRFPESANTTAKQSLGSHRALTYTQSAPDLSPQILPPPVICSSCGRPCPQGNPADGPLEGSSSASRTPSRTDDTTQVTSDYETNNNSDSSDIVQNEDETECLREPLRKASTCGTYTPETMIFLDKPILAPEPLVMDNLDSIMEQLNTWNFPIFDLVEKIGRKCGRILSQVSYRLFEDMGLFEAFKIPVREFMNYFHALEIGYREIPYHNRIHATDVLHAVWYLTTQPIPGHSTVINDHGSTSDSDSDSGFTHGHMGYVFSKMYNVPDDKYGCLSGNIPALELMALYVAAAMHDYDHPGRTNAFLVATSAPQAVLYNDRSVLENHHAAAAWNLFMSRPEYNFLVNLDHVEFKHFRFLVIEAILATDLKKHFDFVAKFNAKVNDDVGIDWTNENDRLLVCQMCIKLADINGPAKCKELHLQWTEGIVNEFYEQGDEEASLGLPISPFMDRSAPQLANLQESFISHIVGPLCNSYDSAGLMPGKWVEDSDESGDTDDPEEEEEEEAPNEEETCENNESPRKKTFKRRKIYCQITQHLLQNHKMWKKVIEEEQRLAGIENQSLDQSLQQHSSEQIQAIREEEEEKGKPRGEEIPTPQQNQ
Nature of the series: Canine cardiac PDE inhibition, CGI. Type of series: biochemical. Particulars: n in table.

The subject of a further series is canine cardiac PDE, CAM. Nature of the series: Canine cardiac PDE inhibition, CAM. In kind it is biochemical. Conditions: n in table.
Series [2] deals with canine cardiac myofibrillar Ca++-dependent Mg++-ATPase. Description: Measurement of myofibrillar Ca++-dependent Mg++-ATPase activity on canine cardiac myofibrils. In kind it is biochemical. Conditions: 30 μM, pH 7.0, 21° C.; for max (percent change of maximal ATPase activity): pCa=5.47.
The test system of a further series is anaesthetised dog. Description: Cardiotonic activity in the dog (haemodynamics). In kind it is in vivo, dog (male Beagle). Particulars: i.v.

Each structure is given as a SMILES string.

As for `CC1SC(=O)NN=C1c1ccc2c(c1)C(Nc1ccccc1)C(=O)N2.Cl` (stereo not drawn) [Example 8, 1,3-Dihydro-5-(3,6-dihydro-6-methyl-2-oxo-2H-1,3,4-thiadiazin-5-yl)-3-phenylamino-2H-indol-2-one, hydrochloride], the “stability in presence of air” value in series [1] is “reverts to the starting material in presence of air”. In addition, the IC50 (usually the point on the concentration scale where inhibition reaches its midpoint) at canine cardiac PDE, CGI is 1.2 µM; with canine cardiac PDE, CAM, 19 µM. In addition, the “max (percent change of maximal ATPase activity)” value in series [2] was 2 ± 3%. Moreover, the “pCa (shift of the pCa giving 50% of the maximal control ATPase activity; Ca++ sensitivity)” value in series [2] is “+0.87 ± 0.01”.
For `CC1SC(=O)NN=C1c1ccc2c(c1)C(=Cc1ccccc1O)C(=O)N2` (stereo not drawn) [Example 17, 1,3-Dihydro-5-(3,6-dihydro-6-methyl-2-oxo-2H-1,3,4-thiadiazin-5-yl)-3-[(2-hydroxyphenyl)methylene]-2H -indol-2-one], in the series with anaesthetised dog (0.3 mg/kg), the AoBF result is “+14 ± 2%”, the AoBP is -8 ± 2%, the H.R. entry was “+9 ± 3%” and the “dP/dt Max” value is “+6 ± 2%”. In the series on anaesthetised dog (1.0 mg/kg), the AoBF entry is on record as “+16 ± 1%”, the AoBP is -7 ± 1%, the H.R. entry was “+22 ± 5%” and the “dP/dt Max” value is listed as “+35 ± 8%”. Moreover, in the series with anaesthetised dog (3.0 mg/kg), the AoBF result is on record as “+18 ± 4%”, the AoBP was -20 ± 7%, the H.R. entry is listed as “+52 ± 13%” and the “dP/dt Max” value is “+81 ± 18%”. Also, the IC50 against canine cardiac PDE, CGI stood at 0.43 µM. The same compound returned an IC50 with canine cardiac PDE, CAM of 23 µM. For the same compound, in series [2], the “max (percent change of maximal ATPase activity)” value is -16 ± 3% and the “pCa (shift of the pCa giving 50% of the maximal control ATPase activity; Ca++ sensitivity)” value is “+0.60 ± 0.07”.

The record behind these values is patent US5051417A, “Indolythiadiazines for treating heart failure” (Les Laboratoires Beecham S.A., priority 1988, dated 1991).
